Test results reported in US8029770B2 (Rutgers, The State University, priority 2003, dated 2011).

Legend:
[1] = tested on: UVB-induced skin tumors in tumor-bearing SKH-1 mice; experiment: Growth of UVB-induced skin tumors in tumor-bearing SKH-1 mice; type: in vivo, mouse
Protocol: Female SKH-1 mice (7 to 8 weeks old) were treated with 30 mJ/cm^2 of UVB twice a week for 20 weeks. The UVB was stopped for 24 weeks. These tumor-bearing animals were divided into 2 groups (19 mice per group). […] The number (FIG. 1A) and size (FIG. 1B) of the tumors were recorded every 2 weeks.
The radius (r) was determined, and the volume was calculated by: volume=4πr^3/3.
Female SKH-1 mice were treated with 30 mJ/cm^2 of UVB twice a week for 20 weeks and UVB were stopped for 24 weeks. The resulting tumor-bearing animals were divided into 2 groups (19 mice per group). […] The number and size of the tumors were recorded every 2 weeks.

[2] = tested on: apoptotic sunburn cells in the epidermis of C57/BL/6J p53(+/+) mice; experiment: UVB-induced apoptotic sunburn cells in C57/BL/6J p53(+/+) mice, topical caffeine; type: in vivo, mouse
Protocol: The time course for apoptosis was determined by utilizing morphologically distinct sunburn cells as the marker for apoptosis. […] Accordingly, studies with a C57/BL/6J mouse were performed with a 60 mJ/cm^2 dose of UVB.
Measurement of apoptotic sunburn cells. Identification of apoptoic sunburn cells was based morphologically on cell shrinkage and nuclear condensation due to fragmentation of the cells. […] The percentage of apoptotic sunburn cells in the epidermis (basal plus suprabasal layers) was calculated from the number of these cells per 100 cells counted from the entire 20 mm length of epidermis for each skin section.

[3] = 4% in 100 mg DERMABASE once a day 5 days a week, 8 weeks (FIG. 1)

Cn1c(=O)c2c(ncn2C)n(C)c1=O.O=C([O-])c1ccccc1.[Na+] [Caffeine Sodium Benzoate, caffeine sodium benzoate]
reduction in the number of tumors that developed per mouse vs DERMABASE [1, 3]: 2 fold | reduction in tumor volume per mouse vs DERMABASE [1, 3]: ~3 fold | number and size of tumors ([1]; 4% in 100 mg DERMABASE, 8 weeks (FIG. 1A, 1B)): significantly reduced

Cn1c(=O)c2c(ncn2C)n(C)c1=O [Caffeine, caffeine]
enhancement of formation of UVB-induced apoptotic sunburn cells vs UVB plus acetone ([2]; female p53(+/+), 1.2 mg in 100 μL acetone immediately, 0.5 and 2 h after UVB 60 mJ/cm^2, 6 hours after UVB): 127% | effect on apoptosis in non-UVB-treated mice ([2]; female p53(+/+), no UVB): no effect | effect on apoptosis in non-UVB-treated epidermis ([2]; male p53(+/+), no UVB): no effect
